Key:
[1] = system: CD46 cell surface expression, 22Rv1 cells; experiment: CD46 cell surface expression by flow cytometry using YS5, 22Rv1 cells; type: cell-based
Protocol: (§1) AR positive 22Rv1 cells were exposed to enzalutamide (5 μM) and CD46 cell surface expression was measured by flow cytometry using YS5. As a reference, prostate specific membrane antigen (PSMA) was also measured at the same time. […] MFI: median fluorescence intensity. See right portion of FIG. 1.
(§2) Methods: 22Rv1 and Du145 cells were exposed to varying concentrations of the Stat3 inhibitor C188-9 and the glucocorticoid receptor inhibitor mifepristone for 7-10 days at 37° C. in culture media, and cell surface CD46 expression is detected by flow cytometry using the anti-CD46 antibody YS5 followed by AlexaFluo-617 labeled anti-human Fc secondary antibody. MFI (median fluorescence intensity) was recorded and analyzed by Student t-test (for two group comparison) and One-way ANOVA (for group number >2).

[2] = system: CD46 cell surface expression, Du145 cells; experiment: CD46 cell surface expression by flow cytometry, Du145 cells; type: cell-based; conditions: 7 days; for CD46 cell surface expression (MFI): Du145 cells, 37° C.
Protocol: as §2

[3] = system: CD46 cell surface expression, VCaP cells; experiment: CD46 cell surface expression by flow cytometry using YS5, VCaP cells; type: cell-based; conditions: AR positive VCaP cells, enzalutamide 5 μM, versus control cells
Protocol: AR positive VCaP cells were exposed to enzalutamide (5 μM) and CD46 cell surface expression was measured by flow cytometry using the YS5 antibody. MFI: median fluorescence intensity.

[4] = system: LNCaP-C4-2B xenografts; type: in vivo; conditions: mice with subcu LNCaP-C4-2B xenografts; 50 mg/kg daily for 4 weeks from day 10; single iv 3 mg/kg CD46 ADC on Day-14; 69 days
Protocol: An in vivo tumor implantation mouse model was studied to measure the effect of pre-treatment with enzalutamide followed by andi-CD46 ADC treatment. LNCaP-C4-2B cells were implanted in mice subcu on Day-0. Starting on day 10, the mice were administered with 50 mg/kg, daily, for 4 weeks. […] FIG. 7 depicts the survival rate of the mice.

[5] = system: CD46 antigen density, LNCaP-C4-2B cells; experiment: CD46 antigen density by quantitative flow cytometry, LNCaP-C4-2B cells; type: cell-based; conditions: 10 μM, 7 days
Source text: CD46 antigen density was *p<0.05; **p<0.01 (p=0.0091), Student's test, duplicates.

[6] = system: prostate specific membrane antigen (PSMA), 22Rv1 cells; experiment: PSMA measured as reference by flow cytometry, 22Rv1 cells; type: cell-based; conditions: AR positive 22Rv1 cells, enzalutamide 5 μM
Protocol: as §1

[7] = system: CD46 cell surface antigen density, H660 cells; experiment: CD46 cell surface antigen density by quantitative flow cytometry, H660 cells; type: cell-based; conditions: AR-negative neuroendocrine H660 cells, 10 μM abiraterone
Protocol: The neuroendocrine prostate cancer cell line H660, which is AR-negative, was exposed to an ASI (in this case, 10 μM abiraterone), and CD46 cell surface antigen density was measured by quantitative flow cytometry. Over 2-fold increase of CD46 antigen density was found following ASI treatment.

[8] = biological target: T1, CD46 on the surface of prostate cancer cells (human, UniProt P15529 35-392); experiment: cell-based or functional assay
T1 sequence (looked up): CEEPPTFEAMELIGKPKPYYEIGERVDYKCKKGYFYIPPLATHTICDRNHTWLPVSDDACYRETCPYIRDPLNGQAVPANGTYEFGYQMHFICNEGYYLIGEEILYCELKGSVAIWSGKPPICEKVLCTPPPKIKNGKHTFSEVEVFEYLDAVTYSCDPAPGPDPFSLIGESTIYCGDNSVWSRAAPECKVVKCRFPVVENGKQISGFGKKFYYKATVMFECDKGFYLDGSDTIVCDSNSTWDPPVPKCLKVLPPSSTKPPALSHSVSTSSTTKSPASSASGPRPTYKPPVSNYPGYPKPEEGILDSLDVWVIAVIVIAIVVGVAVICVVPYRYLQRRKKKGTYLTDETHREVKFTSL

[9] = biological target: T1, CD46 on the surface of prostate cancer …; experiment: flow cytometry on VCaP and 22Rv1 cells (figure legend)
Protocol: AR positive VCaP cells were exposed to enzalutamide (5 μM) and CD46 cell surface expression was measured by flow cytometry using the YS5 antibody. MFI: median fluorescence intensity. […] AR positive 22Rv1 cells were exposed to enzalutamide (5 μM) and CD46 cell surface expression was measured by flow cytometry using YS5. As a reference, prostate specific membrane antigen (PSMA) was also measured at the same time. Enzalutamide-induced upregulation was unique to CD46 but not PSMA. MFI: median fluorescence intensity. See right portion of FIG. 1.
AR positive 22Rv1 cells were exposed to enzalutamide (5 μM) and CD46 cell surface expression was measured by flow cytometry using YS5. As a reference, prostate specific membrane antigen (PSMA) was also measured at the same time. Enzalutamide-induced upregulation was unique to CD46 but not PSMA. MFI: median fluorescence intensity. See right portion of FIG. 1.

CC#C[C@]1(O)CC[C@H]2[C@@H]3CCC4=CC(=O)CCC4=C3[C@@H](c3ccc(N(C)C)cc3)C[C@@]21C [mifepristone]
CD46 cell surface expression (MFI) ([1]; 22Rv1 cells, mifepristone 2.5 μM, 37° C., 10 days, Student t test): not significant | CD46 cell surface expression (MFI) ([2]; mifepristone high concentrations (20 and 50 PM)): inhibits CD46 cell surface presentation

COc1ccc(S(=O)(=O)Nc2cc(-c3c(O)ccc4ccccc34)c(O)c3ccccc23)cc1 [C188-9, N-(1′, 2-Dihydroxy-1,2′-binaphthalen-4′-yl)-4-methoxybenzenesulfonamide]
CD46 cell surface expression (MFI) ([1]; 22Rv1 cells, C188-9 low/mid concentrations (2.5 and 5 μM), 37° C., 10 days): stimulates CD46 cell surface presentation | CD46 cell surface presentation (MFI) ([1]; prostate cancer cells (22Rv1, 10 μM, 10 days, single experiment, FIG. 12; Du145, FIG. 13), C188-9 high concentrations (>10 μM)): inhibits | CD46 cell surface expression (MFI) ([2]; C188-9 10, 20 and 50 μM): inhibits CD46 cell surface presentation

CNC(=O)c1ccc(N2C(=S)N(c3ccc(C#N)c(C(F)(F)F)c3)C(=O)C2(C)C)cc1F [enzalutamide]
CD46 cell surface expression (MFI) [3]: significantly more CD46 expression than control cells | CD46 cell surface expression (MFI) ([1]; AR positive 22Rv1 cells, enzalutamide 5 μM): upregulation was unique to CD46 | tumor response / overall survival (Kaplan-Meier) [4]: resistant to enz treatment alone | CD46 antigen density [5]: increased | CD46 cell surface expression ([2]; AR-null Du145 cells, enzalutamide 5 μM, p<0.0001, n=4): increase significantly | PSMA expression (MFI) [6]: not PSMA

C[C@]12CC[C@H](O)CC1=CC[C@@H]1[C@@H]2CC[C@]2(C)C(c3cccnc3)=CC[C@@H]12 [abiraterone]
increase of CD46 antigen density [7]: Over 2 fold

B1: CD46 ADC (YS5-MC-vc-PAB-MMAF) (antibody, human IgG1, lambda, V domains shown)
VH: QVQLVQSGGGVVQPGRSLRLACAASGLTVNNYAMHWVRQAPGKGLEWVAVISYDGNNKYYADSVKGRFTISRDNSKNTLYLQMNSLRAEDTAVYYCAKGGGYFDLWGRGTLVTVSS
VL: QSVLTQPPSVSGAPGQRVTISCTGSSSNIGAGYDVHWYQQLPGTAPKLLIYGNNNRPSGVPDRFSGSKSGTSASLAITGLQAEDEADYYCSSYTSGTWLFGGGTKLTVLG
modifications: MC-vc-PAB-MMAF drug-linker conjugated; sites and drug to antibody ratio not stated for this conjugate
EC50 of cell killing, LNCaP-C4-2B cells pre-exposed to abiraterone against cells not pre-exposed [8]: 17 fold

B2: YS5 anti-CD46 antibody (antibody, human IgG1, lambda, V domains shown)
VH: QVQLVQSGGGVVQPGRSLRLACAASGLTVNNYAMHWVRQAPGKGLEWVAVISYDGNNKYYADSVKGRFTISRDNSKNTLYLQMNSLRAEDTAVYYCAKGGGYFDLWGRGTLVTVSS
VL: QSVLTQPPSVSGAPGQRVTISCTGSSSNIGAGYDVHWYQQLPGTAPKLLIYGNNNRPSGVPDRFSGSKSGTSASLAITGLQAEDEADYYCSSYTSGTWLFGGGTKLTVLG
notes: also called YS5FL; anti-CD46 antibody YS5
binding result [9]: binds

From US20240307550A1, “MODULATION OF CD46 CELL SURFACE MARKER IN BOTH ANDROGEN RECEPTOR-POSITIVE AND NEGATIVE CANCER CELLS” (The Regents of the University of California, priority 2021, published 2024)
